From paper PMC6273152, “Design, Synthesis, and Biological Evaluation of Novel PARP-1 Inhibitors Based on a 1H-Thieno[3,4-d] Imidazole-4-Carboxamide Scaffold” (Molecules, 2016)

Tests used:
[1] = system: CAPAN-1 (BRCA2-deficient) cells; assay: CellTiter Glo assay for cell growth inhibition, CAPAN-1; conditions: Homo sapiens, CAPAN-1, 96 h, read-out: IC50 (BRCA-2, CAPAN-1)
Procedure: (§1) The growth inhibition potential of test compounds was determined on BRCA1-deficient cell lines HCC1937 and BRCA2-deficient cell lines CAPAN-1. The stock solutions of test compounds were dissolved in DMSO and serially diluted to the required concentrations for 9 doses. […] 60 μL medium was removed from each well and plates were kept at room temperature for 30 min. 60 μL reagent (Celltiter Glo assay kit, Promega, Sunnyvale, CA, USA) per well was added and plates were shaked for 2 min. Cells were incubated avoiding light at room temperature for 30 min and the luminescence value was recorded by multiplate reader. GraphPad Prism 5 was used to plot effect-dose curves and calculate the IC50 values of compounds.

[2] = system: HCC1937 (BRCA1-deficient) cells; assay: CellTiter Glo assay for cell growth inhibition, HCC1937; conditions: Homo sapiens, HCC1937, 96 h, read-out: IC50 (BRCA-1, HCC1937)
Procedure: as §1

in vitro = conditions: human, normal human lung fibroblast (HLF) cells
Procedure: (§2) The cytotoxic potencies of test compounds were determined on normal human lung fibroblast (HLF) cells. Cells were seeded into 96-well plate at 3000 cells/well. The stock solutions of test compounds were dissolved in DMSO and serially diluted to the required concentrations for 7 doses, and the final testing concentrations for these compounds were 0.3, 1, 3, 10, 30, 100, 300 µM. […] The fraction of surviving cells after compound treatment was determined using the MTT assay.

PARP-1 enzyme = target: T1, PARP-1 enzyme (Homo sapiens, UniProt P09874); assay: PARP-1 enzymatic inhibition assay (Trevigen 96-well kit, fluorescence); assay type: biochemical; conditions: Table 2 series (16a–n); logit method, six concentrations; read-out: IC50 (PARP-1 enzyme inhibitory activity)
T1 construct: purchased Trevigen 4690-096-K
T1 sequence (P09874 whole entry): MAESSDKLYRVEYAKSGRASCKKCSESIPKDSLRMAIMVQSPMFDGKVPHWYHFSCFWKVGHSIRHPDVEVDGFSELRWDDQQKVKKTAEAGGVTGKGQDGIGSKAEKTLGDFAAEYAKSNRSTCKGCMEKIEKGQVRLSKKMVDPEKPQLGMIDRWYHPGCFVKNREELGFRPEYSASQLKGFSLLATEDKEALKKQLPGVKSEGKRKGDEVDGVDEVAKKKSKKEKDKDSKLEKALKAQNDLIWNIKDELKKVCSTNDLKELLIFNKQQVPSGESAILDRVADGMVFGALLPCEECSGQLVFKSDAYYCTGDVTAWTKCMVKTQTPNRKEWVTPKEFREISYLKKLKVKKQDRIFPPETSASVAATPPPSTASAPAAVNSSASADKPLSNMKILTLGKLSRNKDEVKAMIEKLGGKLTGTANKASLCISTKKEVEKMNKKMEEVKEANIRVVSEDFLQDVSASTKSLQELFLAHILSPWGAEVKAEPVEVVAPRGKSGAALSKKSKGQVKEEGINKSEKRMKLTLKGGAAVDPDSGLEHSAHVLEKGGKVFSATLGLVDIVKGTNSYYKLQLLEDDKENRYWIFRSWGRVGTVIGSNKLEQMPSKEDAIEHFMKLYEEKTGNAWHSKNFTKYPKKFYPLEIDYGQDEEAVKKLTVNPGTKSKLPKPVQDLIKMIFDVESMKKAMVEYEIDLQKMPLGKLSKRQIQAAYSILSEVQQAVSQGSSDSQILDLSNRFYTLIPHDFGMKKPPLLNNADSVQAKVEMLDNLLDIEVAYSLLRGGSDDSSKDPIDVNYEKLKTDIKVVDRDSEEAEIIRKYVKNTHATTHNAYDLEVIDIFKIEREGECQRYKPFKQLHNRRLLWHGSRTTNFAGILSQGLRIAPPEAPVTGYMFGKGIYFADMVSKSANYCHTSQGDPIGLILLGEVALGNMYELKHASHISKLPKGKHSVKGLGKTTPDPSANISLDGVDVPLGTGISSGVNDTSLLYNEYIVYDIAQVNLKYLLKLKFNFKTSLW
Procedure: All target compounds were evaluated in vitro for their PARP-1 enzyme inhibitory activity.
The procedure was according to the instructions provided by the manufacturer. […] 25 μL of 1 × Buffer was added to each well and 25 μL of appropriate 2 × NAD^+ standards were added to 1B to 1G and 2B to 2G well of 96-well plate for standard curve. 25 μL of 2 μM NAD was added to 1H and 2H for PARP control. 25 μL of 2 μM NAD was added to wells for test compounds, then serially diluted compounds were added, and 1 μL of DMSO was added to the standard well. 25 μL of PARP Mix minus enzyme was added to 1A to 1G and 25 μL of PARP Mix plus enzyme was added to PARP control and compounds well. […] Then 50 μL stop solution was added to each well, and mixed with pipette. […] Then draw the standard curve and calculate the inhibition rate of each test compound.

[3] = system: normal human lung fibroblast (HLF) cells; assay: Cytotoxicity assay (MTT) on normal human lung fibroblast cells; conditions: 72 h
Procedure: as §2

Compound | IC50 [1] | IC50 [2] | IC50 at 72 h (in vitro) | IC50 (PARP-1 enzyme) | Inhibition Rate ([3]; 0.3 µM) | Inhibition Rate ([3]; 1 µM) | Inhibition Rate ([3]; 3 µM) | Inhibition Rate ([3]; 10 µM) | Inhibition Rate ([3]; 30 µM) | Inhibition Rate ([3]; 100 µM) | Inhibition Rate ([3]; 300 µM)
COc1ccc(-c2nc3c(C(N)=O)scc3[nH]2)cc1 [Compound 16j, 2-(4-Methoxyphenyl)-1H-thieno[3,4-d]imidazole-4-carboxamide] | 46.6 ± 0.62 µM | 55.14 ± 0.24 µM | > 300 µM | 0.102 µM | 0.68% | 2.85% | 2.68% | 6.95% | 9.43% | 12.63% | 32.37%
Cc1ccc(-c2nc3c(C(N)=O)scc3[nH]2)cc1 [Compound 16l, 2-(p-Tolyl)-1H-thieno[3,4-d]imidazole-4-carboxamide] | 38.8 ± 1.6 µM | 49.2 ± 5.43 µM | > 300 µM | 0.043 µM | 0.42% | 3.80% | 7.12% | 10.16% | 13.65% | 23.20% | 27.94%
